Experimental data: patent US12590130B2, “Bipartite molecules and uses thereof in treating diseases associated with abnormal protein aggregates” (ACADEMIA SINICA, priority 2014, dated 2026)
Square brackets hold non-standard residues; d marks the D form. Ends that are not written are not given here. Peptide text beside a SMILES is read from it. * marks the point of attachment. Cbz = O=C(OCc1ccccc1)*

Legend:
[1] = system: 109QmHtt; experiment: Western blot of RIPA-soluble and -insoluble fractions of Neuro2a lysates; type: cell-based; settings: all groups
Description: (§1) FIG. 4. Testing the ability of therapeutic peptides to decrease mHtt aggregation in Neuro2a cells overexpressing mHtt. Panel A: Filter trap assays and corresponding quantitation of cells (panel B) treated as indicated at 8 hours (T1), 24 hours (T2), or both (T1+2) after transfection with the 109QmHtt construct. […] Panel C: Western blots and quantitation (panel D) of RIPA-soluble (sol) and -insoluble (ins) fractions of Neuro2a cells overexpressing 25QHtt or 109QmHtt and treated as indicated. […] Panel E: Western blot of the 109QmHtt in cells treated as indicated. Note that MG132 blocked the effect of 8R10Q peptide with respect to decreasing insoluble 109QmHtt. Panel F: Quantitation of ratio of 109QmHtt in cells treated MG132 (+) over DMSO (−) in relationship to peptides. Statistical analysis conducted with one way ANOVA, *<0.05, **<0.01, ***<0.001, ns: not significant.
For further characterization, Neuro2a lysates were separated into the RIPA-soluble (sol) and insoluble (ins) fractions ([…]). 8R10Q peptide decreased the level of mHtt in both the soluble and insoluble fractions as compared with water, 8R, or the scrambled (s8R10Q) control (FIG. 4, panel D). […]

[2] = system: Mouse N2a neuroblastoma cells
Description: Cell viability measurement by MTT assays. […] Each bar was generated by a triplicate experiment; the study was repeated 3 times. The statistics were performed with one way ANOVA corrected with Fisher's LSD test. ***: p<0.001; ****p<0.0001; ns, not significant.
Cell viability assay. The viability of mouse N2a cells incubated with the indicated peptide(s) was measured using the MTT assay.
Mouse N2a neuroblastoma cells (ATCC) were cultured in Dulbecco's modified Eagle's medium (DMEM) (HyClone, USA) supplemented with 10% fetal bovine serum (FBS; HyClone, USA) in 5% CO2 at 37° C. For the cell viability assay, the cells were harvested, suspended at a density of 350,000 cells/mL in DMEM, and 100 μL of each sample was plated in each well of a 96-well CellBIND polystyrene microplate (Corning, USA). […] Cell viability was determined using the MTT (3-[4,5-dimethylthiazol-2-yl]-2,5-diphenyltetrazolium bromide) toxicity assay. […] Ten microliters of 5 mg/mL of MTT in PBS was added to each well, and then, after incubation for 4 h, the medium was removed and the MTT crystals were dissolved in 100 μL of 90% isopropanol, 0.5% SDS, and 40 mM HCl, and their absorption at 570 nm was measured. Cell viability was calculated by dividing the absorbance of the wells containing peptide samples by that of the wells without any added peptide. […]

[3] = system: 109QmHtt aggregates; experiment: TIRF microscopy of mHtt aggregates in Neuro2a cells; type: cell-based; settings: Neuro2a cells expressing 109QmHtt
Description: FIG. 3. Diagrams showing the co-localization of tested bipartite peptides with the 109QmHtt aggregates. Panel A: Structure of TAMRA-labeled 8R10Q used in this study. Panel B: Epifluorescence micrographs of Neuro2a cells expressing 109QmHtt treated with TAMRA-8R10Q (8R10Q) at various time points. Note the co-localization of 8R10Q and 109QmHttGFP aggregates (GFP) from 8-24 hours (arrows). Scale bar: 10 μm. Panel C: TIRF micrographs of the Neuro2a expressing 109QmHtt treated with water or peptides as indicated at various time points. Note the decrease in aggregate size in 8R10Q and 8R15Q-treated cells. Panel D: Quantitation of the size of individual aggregates in Neuro2a at 8 hours (left) and 24 hours (right) after peptide treatment. […] Panel E: Quantitation of the number of aggregates in 20 Neuro2a cells at 12 hours (left) and 24 hours (right) after peptide treatment. Both the 8R10Q and 8R15Q increased the number of aggregates. Statistics performed with one way ANOVA. **p<0.01; ***p<0.001.
To probe into the details of the effect of peptide on the mHtt aggregates, the parameters of the mHtt aggregates were visualized and measured using the Total Internal Reflection Fluorescence (TIRF) microscopy. […] The number of aggregates in 20 cells was also calculated. 8R10Q and 8R15Q increased the number of the aggregates by 4-5 fold (FIG. 3, panel E).

[4] = Solubility of therapeutic peptides; type: physicochemical
Description: (§2) In this study, the rational design was tested for HD. Several bipartite therapeutic peptides containing 8 consecutive arginines (8R) attached to a stretch of consecutive glutamines (polyQ) were synthesized and their biological activity of decreasing the aggregation propensity of the mHtt protein was investigated. The length of the polyQ of these bipartite peptides was 5 (8R5Q), 10 (8R10Q), 15 (8R15Q) or 20 (8R20Q) (Table 2).

[5] = system: Neuro2a cells expressing 109QmHtt; experiment: Retinoic acid-induced neurite outgrowth; type: cell-based, mouse; settings: 109QmHtt cells; vs water or scrambled control
Description: FIG. 5. Therapeutic effect of 8R10Q and 8R15Q in 109QmHtt-expressing cells. Panel A: Cell viability assay by MTT in Neuro2a cells expressing 25QHtt (left) or 109QmHtt (right) treated with H2O2 at 50 μM and the indicated peptide. Panel B: Cell growth curve of Neuro2a cells expressing 25QHtt or 109QmHtt treated with indicated peptide. The cells in right subpanel were further treated with H2O2 at 12.5 μM 16 hours after transfection. 109QmHtt cells growth was slower than that of the 25QHtt cells. 8R10Q treatment rescued the slow growth of Neuro2a cells by 109QmHtt with or without H2O2. Panel C: Micrographs of the phase contrast and fluorescent images of retinoic acid-differentiated Neu2a cells expressing GFP-25QHtt or GFP-109QmHtt (GFP) treated with the indicated peptide. Note the neurites of the differentiated cells. Panel D: Quantitation of the percentage of differentiated cells with neurites. Fewer 109QmHtt-expressing cells had neurites vs. 25QHtt-expressing cells. […] The experiments were conducted in triplicate and repeated twice. Statistical analysis was performed with one way ANOVA, *p<0.05; **p<0.01; ***p<0.001, ns: not significant.
Retinoic acid (RA) induced the differentiation of Neuro2a cells with neurite outgrowth. 109QmHtt decreased the number of cells bearing RA-induced neurites relative to 25QHtt (FIG. 5, panels C and D).

[6] = Stability of therapeutic peptides determined by HPLC; type: physicochemical; settings: day 0 to day 28
Description: FIG. 2. Stability of the therapeutic peptides determined by HPLC. A: diagrams showing the retention time of the tested peptides from day 0 to day 28. B: charts showing the amount of the tested peptides at day 0 and day 28.
as §2

[7] = system: 109QmHtt; experiment: Filter trap assay of aggregated 109QmHtt in Neuro2a cells; type: cell-based
Description: as §1
Whether the peptides could modulate the aggregation propensity of mHtt was next investigated.

Molecule | average size of the aggregates [3] | Solubility (DMEM/10% FBS) [4] | solubility in water or culture medium [4] | also measured
CC(C)C[C@@H](C=O)NC(=O)[C@H](CC(C)C)NC(=O)[C@H](CC(C)C)NC(=O)OCc1ccccc1 [MG132, reference compound] (Cbz-Leu-Leu-Leu-aldehyde) |  |  |  | level of mHtt after MG132 treatment [1]: increased
CC[C@H](C)[C@H](NC(=O)[C@H](C)NC(=O)CNC(=O)[C@H](CCCCN)NC(=O)[C@H](CC(N)=O)NC(=O)[C@H](CO)NC(=O)CNC(=O)[C@@H](CCCNC(=N)N)NC(=O)[C@@H](CCCNC(=N)N)NC(=O)[C@@H](CCCNC(=N)N)NC(=O)[C@@H](CCCNC(=N)N)NC(=O)[C@@H](CCCNC(=N)N)NC(=O)[C@@H](CCCNC(=N)N)NC(=O)[C@@H](CCCNC(=N)N)NC(=O)[C@H](N)CCCNC(=N)N)C(=O)N[C@H](C(=O)NCC(=O)N[C@@H](CC(C)C)C(=O)N[C@@H](CCSC)C(N)=O)[C@@H](C)CC [^DR8-Aβ(25-35)] (H-[dR][dR][dR][dR][dR][dR][dR][dR]GSNKGAIIGLM-NH2; N-terminus assumed) |  |  |  | viability of Neuro2a cells treated with peptide alone [2]: no detectable toxicity
H-RQQRRQQDQRQWQRQRQQRR-NH2 [s8R10Q, reference compound] | 1.7 μm^2 | Soluble |  | 
H-RRRRRRRRWD-NH2 [Peptide 8R, NH2-(R)8-W-D-CONH2, reference compound] | 3.3 μm^2 | Soluble |  | RA-induced neurite outgrowth [5]: rescued the cells from this toxicity to some extent
H-RRRRRRRRWDQQQQQ-NH2 [Peptide 8R5Q, NH2-(R)8-W-D-(Q)5-CONH2] |  | Soluble | highly soluble | 
H-RRRRRRRRWDQQQQQQQQQQQQQQQ-NH2 [Peptide 8R15Q, NH2-(R)8-W-D-(Q)15-CONH2] | 0.2 μm^2 | aggregated | partially soluble | change in retention time and amount during HPLC analysis [6]: time-dependent decrease in the retention time and amount; aggregated 109QmHtt by filter trap assay ([7]; 20 μM peptide added at 8 hours (T1) or 8 plus 24 hours (T1+T2) after transfection, vs water or 8R): significantly reduced; aggregated 109QmHtt by filter trap assay ([7]; peptide added at 24 hours alone): no obvious effects
H-RRRRRRRRWDQQQQQQQQQQQQQQQQQQQQ-NH2 [Peptide 8R20Q, NH2-(R)8-W-D-(Q)20-CONH2] |  | aggregated | insoluble | change in retention time and amount during HPLC analysis [6]: time-dependent decrease in the retention time and amount
RRRRRRRRGSNKGAIIGLM-NH2 [R8-Aβ(25-35)] |  |  |  | viability of Neuro2a cells treated with peptide alone [2]: no detectable toxicity
TAMRA-NH-(R)8-W-D-CONH2 [TAMRA-8RWD, reference compound] |  | Soluble |  | 
TAMRA-NH-RQQRRQQDQRQWQRQRQQRR-CONH2 ({TAMRA}-RQQRRQQDQRQWQRQRQQRR-NH2) [TAMRA-s8R10Q, reference compound] |  | Soluble |  | 
